Where a name gives a salt, the structure may show the parent alone.

The term melting point denotes the temperature of the solid-liquid transition. For the molecule `O=C(Nc1cccc2c1C(=O)N(CCC(=O)N1CCN(c3ccncc3)CC1)C2)c1ccc(Cl)s1` (as salt: TFA) [Example 88], the melting point came out at 118 °C. The molecule `O=C(Nc1cccc2c1C(=O)N(CCC(=O)N1CCN(c3ccncc3)CC1)C2=O)c1ccc(Cl)s1` [Example 5, 5-Chloro-N-(1,3-dioxo-2-{3-oxo-3-[4-(4-pyridinyl)piperazino]propyl}-2,3-dihydro-1H-isoindol-4-yl)-2-thiophenecarboxamide] had a melting point of 167 °C. The figure for `O=C(Nc1cccc2c1C(=O)N(CC(=O)N1CCN(c3cnccn3)CC1)C2=O)c1ccc(Cl)s1` [Example 6] is 237 °C; for `O=C(Nc1cccc2c1C(=O)N(CC(=O)N1CCN(c3ccccn3)CC1)C2=O)c1ccc(Cl)s1` [Example 7] it is 203 °C. `Cc1cccc(N2CCN(C(=O)CN3C(=O)c4cccc(NC(=O)c5ccc(Cl)s5)c4C3=O)CC2)c1` [Example 8] returned a melting point of 136 °C.

Regarding `N#Cc1ccc(N2CCN(C(=O)CN3C(=O)c4cccc(NC(=O)c5ccc(Cl)s5)c4C3=O)CC2)nc1` [Example 9], the melting point was 169 °C (dec.). In the case of `O=C(Nc1cccc2c1C(=O)N(CC(=O)N1CCN(c3cccc4[nH]ccc34)CC1)C2=O)c1ccc(Cl)s1` [Example 10], the melting point was 209 °C.

Molecule `O=C(Nc1cccc2c1C(=O)N(CC(=O)N1CCN(c3ncnc4sccc34)CC1)C2=O)c1ccc(Cl)s1` [Example 12] gave a melting point of 277 °C. The same measure for `N#Cc1nccnc1N1CCN(C(=O)CN2C(=O)c3cccc(NC(=O)c4ccc(Cl)s4)c3C2=O)CC1` [Example 13]: 242 °C; for `Cc1cccc(N2CCN(C(=O)CN3C(=O)c4cccc(NC(=O)c5ccc(Cl)s5)c4C3=O)CC2)n1` [Example 14]: 241 °C. The molecule `CC(C)NC(=O)CN1CCN(C(=O)CN2C(=O)c3cccc(NC(=O)c4ccc(Cl)s4)c3C2=O)CC1` [Example 16] displayed a melting point of 124 °C. `CN(C)C(=O)CN1CCN(C(=O)CN2C(=O)c3cccc(NC(=O)c4ccc(Cl)s4)c3C2=O)CC1` [Example 17] came in with a melting point of 189 °C.

Molecule `O=C(Nc1cccc2c1C(=O)N(CC(=O)N1CCN(CC(=O)N3CCCC3)CC1)C2=O)c1ccc(Cl)s1` [Example 19] returned a melting point of 122 °C. In the case of `O=C(Nc1cccc2c1C(=O)N(CC(=O)N1CCN(CCCN3CCCCC3)CC1)C2=O)c1ccc(Cl)s1` [Example 20], the melting point was 104 °C. The same measure for `O=C(Nc1cccc2c1C(=O)N(CC(=O)N1CCN(CC(=O)N3CCOCC3)CC1)C2=O)c1ccc(Cl)s1` [Example 21]: 230 °C; for `COCCN1CCN(C(=O)CN2C(=O)c3cccc(NC(=O)c4ccc(Cl)s4)c3C2=O)CC1` [Example 22]: 158 °C.

In the case of `O=C(Nc1cccc2c1C(=O)N(CC(=O)N1CCC(NCc3cccnc3)CC1)C2=O)c1ccc(Cl)s1` [Example 24], the melting point worked out at 220 °C. The same measure for `Nc1cnccc1N1CCN(C(=O)CN2C(=O)c3cccc(NC(=O)c4ccc(Cl)s4)c3C2=O)CC1` [Example 27]: 178 °C. In the case of `O=C(CN1C(=O)c2cccc(NC(=O)c3ccc(Cl)s3)c2C1=O)NCC1CCN(c2ccncc2)CC1` [Example 28], the melting point is 256 °C. The same measure for `O=C(Nc1cccc2c1C(=O)N(CC(=O)N1CCN(c3ccc4c(c3)OCO4)CC1)C2=O)c1ccc(Cl)s1` [Example 32]: 203 °C; for `O=C(Nc1cccc2c1C(=O)N(CC(=O)N1CCC(CO)CC1)C2=O)c1ccc(Cl)s1` [Example 36, 5-Chloro-N-(2-{2-[4-(hydroxymethyl)piperidino]-2-oxoethyl}-1,3-dioxo-2,3-dihydro-1H-isoindol-4-yl)-2-thiophenecarboxamide]: 198 °C. The figure for `O=C(Nc1cccc2c1C(=O)N(C1CCN(c3ccncc3)CC1)C2=O)c1ccc(Cl)s1` [Example 63, 5-Chloro-N-{1,3-dioxo-2-[1-(4-pyridinyl)-4-piperidinyl]-2,3-dihydro-1H-isoindol-4-yl}-2-thiophenecarboxamide] is 214 °C; for `O=C(Nc1cccc2c1C(=O)N(CC(=O)N1CCC(CO)CC1)C2O)c1ccc(Cl)s1` (stereo not shown) [Example 89] it is 233 °C; for `O=C(Nc1cccc2c1C(O)N(CC(=O)N1CCC(CO)CC1)C2=O)c1ccc(Cl)s1` (stereo not shown) [Example 90] it is 234 °C (dec.). The same measure for `O=C(Nc1cccc2c1CN(CC(=O)N1CCC(CO)CC1)C2=O)c1ccc(Cl)s1` [Example 92]: 209 °C.

The record behind these values is US7482472B2, “Substituted isoindoles and their use” (Bayer Healthcare AG, priority 2002, dated 2009).
